Data reported in patent publication US11319289B2, “5-hydroxy pyridine-based compound for use as P2X1 and P2X3 receptor antagonist and pharmaceutical composition comprising same” (GWANGJU INSTITUTE OF SCIENCE AND TECHNOLOGY, priority 2017, dated 2022).

Molecular target: T1, CYP450 3A4 (Homo sapiens, UniProt P08684)
T1 construct: purchased Invitrogen
Test: CYP inhibition assay (Vivid fluorometric), 3A4
Assay type: biochemical
Conditions: 1 μM in Table 5
Method: CYP450 (1A2, 2C9, 3A4) enzyme assay was performed by a fluorometric assay using a Vivid® CYP450 screening kit (Invitrogen, USA, CA) in a 96-well black plate according to manufacturer's instructions with some modifications. The assay was performed at room temperature, and the final assay volume was 100 μL. […]
A master pre-mixture (enzyme (0.5 nmol recombinant human CYP450 enzyme)/NADP regeneration solution (333 mM glucose-6-phosphate dissolved, 30 U/mL glucose-6-phosphate dehydrogenase in 100 mM KH2PO4 solution at pH 8.0)) was prepared as a CYP450 reaction buffer (200 mM KH2PO4, pH 8.0). The master pre-mixture was added to each well of the 96 well plate, followed by the vehicle DMSO (control) and test compounds, and the mixture was preincubated for 10 minutes in the plate for background reading. Subsequently, the enzyme reaction was immediately initiated through the addition of CYP450 substrate/NADP^+ mixture. After incubation for 40 minutes, the fluorescence of the product was measured with a CHAMELEON™ multi-technology plate reader (2C9, 3A4: excitation wavelength of 530 nm and emission wavelength of 590 nm, 1A2: excitation wavelength of 415 nm and emission wavelength of 460 nm). The effect of the test compounds on CYP450 (1A2, 2C9, 3A4) was expressed as the percentage of enzyme activity.

T1 sequence (P08684 whole entry): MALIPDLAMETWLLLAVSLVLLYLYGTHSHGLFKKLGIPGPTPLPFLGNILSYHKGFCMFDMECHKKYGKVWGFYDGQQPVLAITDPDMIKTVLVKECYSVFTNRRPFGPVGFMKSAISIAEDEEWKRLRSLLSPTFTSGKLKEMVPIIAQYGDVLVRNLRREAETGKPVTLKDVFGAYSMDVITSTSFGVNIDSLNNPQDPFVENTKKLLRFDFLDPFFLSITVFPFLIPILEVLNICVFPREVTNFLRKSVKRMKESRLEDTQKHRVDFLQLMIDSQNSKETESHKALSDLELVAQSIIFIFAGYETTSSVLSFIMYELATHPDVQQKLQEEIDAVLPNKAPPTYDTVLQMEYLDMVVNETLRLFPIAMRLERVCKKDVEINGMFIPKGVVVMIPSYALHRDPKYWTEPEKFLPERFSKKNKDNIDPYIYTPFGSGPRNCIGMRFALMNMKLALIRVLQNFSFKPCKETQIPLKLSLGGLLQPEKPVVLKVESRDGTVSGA

CYP450 inhibition, 3A4 isozyme: weak inhibitory effect
SMILES: CCCc1nc(Cc2cccc(Oc3ccccc3)c2)c(C)c(C(=O)O)c1O [Compound 29, 3-Hydroxy-5-methyl-6-(3-phenoxybenzyl)-2-propylisonicotinic acid]
